{"source": "paper PMC10224427", "about": "“A Novel Flow Cytometry-Based Assay for the Identification of HCN4 CNBD Ligands” (Pharmaceuticals, 2023)", "key": {"[1]": {"biological_target": "HCN4 MBP-C-Linker-CNBD fusion protein", "parameters": "method as in PMID 24605759", "conditions": "ITC; cited from earlier work"}, "[2]": {"biological_target": "T1, HCN4 C-Linker-CNBD (Homo sapiens, UniProt Q9Y3Q4)", "T1 construct": "the passenger domain human HCN4 C-Linker-CNBD; CtxB signal peptide (N, cleaved yes); His-Tag (N); made in house; host or cells: E. coli BL21 (OmpT-deficient)", "T1 sequence (Q9Y3Q4 521-723 limits assumed)": "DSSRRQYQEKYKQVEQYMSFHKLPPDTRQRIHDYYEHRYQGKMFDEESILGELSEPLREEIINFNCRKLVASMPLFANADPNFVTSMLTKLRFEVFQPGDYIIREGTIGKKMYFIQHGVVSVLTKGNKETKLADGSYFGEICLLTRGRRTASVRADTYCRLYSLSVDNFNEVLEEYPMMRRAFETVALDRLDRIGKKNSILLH", "assay": "Competitive binding assay, displacement of 8-Fluo-cAMP, flow cytometry"}, "[3]": {"biological_target": "purified HCN4 C-Linker-CNBD", "conditions": "ITC; cited from earlier work"}, "[4]": {"biological_target": "purified HCN4 C-Linker-CNBD", "conditions": "SPR; cited from earlier work"}, "[5]": {"biological_target": "maltose-binding protein (MBP) (Escherichia coli, UniProt P0AEX9)", "conditions": "up to 4 µM 8-Fluo-cAMP"}, "[6]": {"biological_target": "purified HCN4 C-Linker-CNBD", "conditions": "cited from earlier work"}, "[7]": {"biological_target": "T1, HCN4 C-Linker-CNBD", "assay": "Flow cytometry-based ligand-binding assay, 8-Fluo-cAMP on E. coli surface-displayed protein"}, "[8]": {"biological_target": "purified HCN4 MBP-C-Linker-CNBD fusion protein", "conditions": "FP, cited from earlier work"}, "[9]": {"conditions": "50 nM 8-Fluo-cAMP, 100 µM competitor"}, "[10]": {"conditions": "ref 47, read-out: binding affinity (Kd)"}}, "note": "Values joined by “and” are separate entries in the source; they are usually repeats but may differ in a detail not shown here. Equal entries are not always repeated. “Also recorded” adds a separate entry of the source. Where two headings read alike, the source gives them in different places.", "data": [{"smiles": "Nc1ncnc2c1ccn2[C@@H]1O[C@@H]2COP(=O)(O)O[C@H]2[C@H]1O", "note": "[7-CH-cAMP, 7-Deazaadenosine-3,5′-cyclic monophosphate]", "values": [{"measurement": "Kd", "setting": "[1]", "result": 30, "unit": "nM"}, {"measurement": "IC50", "setting": "[2]; 50 nM 8-Fluo-cAMP, read-out: IC50 for 8-Fluo-cAMP binding", "result": "0.23 ± 0.041", "unit": "µM"}, {"measurement": "Ki", "setting": "[2]; 50 nM 8-Fluo-cAMP, read-out: inhibitory constant (Ki), calculated", "result": "0.159 ± 0.029", "unit": "µM"}]}, {"smiles": "COc1cc2c(cc1OC)CC(=O)N(CCCN(C)C[C@H]1Cc3cc(OC)c(OC)cc31)CC2", "note": "[ivabradine, Ivabradine]", "values": [{"measurement": "effect on 8-Fluo-cAMP binding to the CNBD (mFI)", "setting": "[2]; [9]", "result": "no impact on ligand binding; also recorded: no influence"}]}, {"smiles": "Nc1ncnc2c1ncn2C1OC2COP(=O)(O)OC2C1O", "note": "(stereo not drawn) [cAMP, Adenosine-3′,5′-cyclic monophosphate]", "values": [{"measurement": "Kd", "setting": "[3]", "result": 800, "unit": "nM"}, {"measurement": "Kd", "setting": "[4]", "result": 1500, "unit": "nM"}, {"measurement": "effect on 8-Fluo-cAMP binding to the CNBD (mFI)", "setting": "[2]", "result": "decreased mFI"}, {"measurement": "IC50", "setting": "[2]; IC50 for 8-Fluo-cAMP binding", "result": "13 µM and 16 µM and 23 µM and 27 µM"}, {"measurement": "Ki", "setting": "[2]; Ki determined graphically", "result": 11.7, "unit": "µM"}, {"measurement": "Ki", "setting": "[2]; calculated Ki", "result": "8.5 ± 2", "unit": "µM"}]}, {"smiles": "Nc1ncnc2c1nc(SCCNC(=S)Nc1ccc(-c3c4ccc(=O)cc-4oc4cc(O)ccc34)c(C(=O)O)c1)n2[C@@H]1O[C@@H]2COP(=O)(O)O[C@H]2[C@H]1O", "note": "[8-Fluo-cAMP, 8-(2-[Fluoresceinyl]aminoethylthio)adenosine-3′,5′-cyclic monophosphate]", "values": [{"measurement": "unspecific binding to surface-displayed MBP (mFI)", "setting": "[5]", "result": "only a marginal increase in mFI; also recorded: no unspecific binding"}, {"measurement": "Kd", "setting": "[6]; ref 9, read-out: binding affinity (Kd)", "result": 280, "unit": "nM"}, {"measurement": "Kd", "setting": "[6]; [10]", "result": 167, "unit": "nM"}, {"measurement": "concentration at which saturation of binding is attained", "setting": "[7]; mFI of cells displaying HCN4 C-Linker-CNBD", "result": "around 500 nM"}, {"measurement": "Kd", "setting": "[7]; surface-displayed HCN4 C-Linker-CNBD on E. coli, 1 nM-4 µM ligand, 30 min, 30 °C, read-out: dissociation constant (Kd)", "result": "173 ± 46", "unit": "nM"}, {"measurement": "Kd", "setting": "[8]; ref 35, read-out: binding affinity (Kd)", "result": 189, "unit": "nM"}, {"measurement": "Kd", "setting": "[8]; [10]", "result": 111, "unit": "nM"}]}, {"smiles": "NCC1(CC(=O)O)CCCCC1", "note": "[gabapentin, Gabapentin]", "values": [{"measurement": "effect on 8-Fluo-cAMP binding to the CNBD (mFI)", "setting": "[2]; [9]", "result": "no influence; also recorded: no impact"}]}]}
